Earlier results as cited in US20090275622A1, “NIZATIDINE FORMULATIONS” (priority 2008, published 2009).

Settings: crystalline solid

Solubility in water: soluble in water
SMILES: CN/C(=C\[N+](=O)[O-])NCCSCc1csc(CN(C)C)n1 [Nizatidine, N-[2-[[[2-[(dimethylamino)methyl]-4-thiazolyl]methyl]thio]ethyl]-N′-methyl-2-nitro-1,1-ethenediamine]
